How the values were obtained:
[1] = Selectivity index determined for CC50 (test II) / EC50 x 10e3; format: functional
[2] = Selectivity index determined for CC50 (test I) / EC50 x 10e3; format: functional
MT4 [3] = experiment: Cytotoxic concentration of compound required to reduce the viability of mock infected MT-4 cells on the MTT assay in test I; format: functional; settings: Homo sapiens
[4] = tested on: Human immunodeficiency virus 1; experiment: Effective concentration for 50% protection of HIV-induced cytopathogenicity in MT-4 cells on the MTT assay (ZIDOVUDINE control); format: functional, organism-based; settings: Human immunodeficiency virus 1, MT4
[5] = Selectivity index determined for CC50 (test I) to EC50 x 10e3; format: functional
[6] = Selectivity index determined for CC50 (test II) to EC50 x 10e3; format: functional
MT4 [7] = experiment: Cytotoxic concentration of compound required to reduce the viability of mock infected MT-4 cells on the MTT assay by testI; format: functional; settings: Homo sapiens
PBMC (Homo sapiens) = experiment: Cytotoxic concentration of compound determined by the […] exclusion staining method in PBMC by test II

SMILES: NCCCC[C@@H]1NC(=O)[C@@H](CCCCN)NC(=O)[C@H](CCCN=C(N)N)NC(=O)[C@@H](Cc2ccc(O)cc2)NC(=O)[C@H](NC(=O)[C@@H](NC(=O)[C@H](CCCN=C(N)N)NC(=O)[C@@H](N)CCCN=C(N)N)c2ccc3ccccc3c2)CSSC[C@H](C(=O)N[C@@H](CCCN=C(N)N)C(=O)O)NC(=O)[C@H](CCCNC(N)=O)NC(=O)[C@H](CCCN=C(N)N)NC(=O)[C@H](Cc2ccc(O)cc2)NC(=O)[C@H]2CCCN2C1=O
- SI [1]: 18
- SI [2]: > 0.3

SMILES: Cc1cn([C@H]2C[C@H](N=[N+]=[N-])[C@@H](CO)O2)c(=O)[nH]c1=O [ZIDOVUDINE]
- CC50 (MT4 [3]): 12 µM
- EC50 [4]: 0.0079 µM
- SI [5]: 1.5

SMILES: NCCCC[C@H]1NC(=O)[C@H](CCCN=C(N)N)NC(=O)[C@@H](Cc2ccc(O)cc2)NC(=O)[C@H](NC(=O)[C@@H](NC(=O)[C@H](CCCN=C(N)N)NC(=O)[C@@H](N)CCCNC(N)=O)c2ccc3ccccc3c2)CSSC[C@H](C(=O)N[C@@H](CCCN=C(N)N)C(N)=O)NC(=O)[C@H](CCCNC(N)=O)NC(=O)[C@H](CCCN=C(N)N)NC(=O)[C@H](Cc2ccc(O)cc2)NC(=O)[C@H]2CCCN2C(=O)[C@H](CCCNC(N)=O)NC1=O
- SI [6]: 420
- SI [5]: > 83

SMILES: NCCCC[C@@H]1NC(=O)[C@H](CCCN=C(N)N)NC(=O)[C@H](Cc2ccc(O)cc2)NC(=O)[C@@H](NC(=O)[C@@H](NC(=O)[C@H](CCCN=C(N)N)NC(=O)[C@@H](N)CCCN=C(N)N)c2ccc3ccccc3c2)CSSC[C@@H](C(=O)N[C@@H](CCCN=C(N)N)C(=O)O)NC(=O)[C@H](CCCNC(N)=O)NC(=O)[C@H](CCCN=C(N)N)NC(=O)[C@H](Cc2ccc(O)cc2)NC(=O)[C@@H]2CCCN2C(=O)[C@@H](CCCCN)NC1=O
- CC50 (MT4 [7]): > 1 µM
- CC50 (PBMC (Homo sapiens)): 59 µM

From ChEMBL document CHEMBL1134146, “Development of specific CXCR4 inhibitors possessing high selectivity indexes as well as complete stability in serum based on an anti-HIV peptide T140” (Bioorg Med Chem Lett, 2001)
